According to article PMC11721293 (JCI Insight, 2025):
pEC50: −log10 of the molar value. Where “and” joins values, the source holds several entries; their conditions need not be identical. Identical values can stand only once. Like-named read-outs stand apart in the source and are kept apart here.

What was measured:
[1] = tested on: SARS-CoV-2-nLUC; experiment: microbe, parasite or virus in culture; format: cell-based; conditions: for viral inhibition (EC50 curve data): Huh7A2T2, log[Lonafarnib]; for Replication: LNF
[2] = tested on: SARS-CoV-2 (Wuhan strain); format: cell-based; conditions: replicates
[3] = tested on: SARS-CoV-2 Wuhan; format: cell-based; conditions: VeroE6, 10 μM LNF, 24 h, DMSO = 100%
[4] = tested on: SARS-CoV-2 BA.1 (Omicron); format: cell-based; conditions: VeroE6, 10 μM LNF, 24 h, DMSO = 100%
[5] = tested on: SARS-CoV-2 spike protein–mediated cell-cell fusion (Wuhan); format: cell-based; conditions: 48 h
[6] = tested on: SARS-CoV-2 spike protein–mediated cell-cell fusion (B.1.1.7); format: cell-based; conditions: 48 h
[7] = tested on: SARS-CoV-2 spike protein–mediated cell-cell fusion (B.1.315); format: cell-based; conditions: B.1.315 (printed), 48 h
[8] = tested on: SARS-CoV-2 spike protein–mediated cell-cell fusion (B.1.617); format: cell-based; conditions: 48 h
[9] = tested on: SARS-CoV-2; format: cell-based; conditions: for percentage replication relative to untreated, infected control: LNF 10 μM
[10] = tested on: SARS-CoV-2 RDPs; experiment: microbe, parasite or virus in culture; format: cell-based; conditions: for pEC50: Huh7.5 ACE-TMPRSS2, Gluc RDPs, 24 h
[11] = tested on: SARS-CoV-2 strain USA-WA1/2020; format: in vivo, mouse; conditions: for Viral titer Log10: individual animals, sheet S9B
[12] = tested on: SARS-CoV-2-WA; format: in vivo, mouse; conditions: 50 MPK oral gavage twice daily; day 2
[13] = in vitro; conditions: human
[14] = in vitro; conditions: human; remark: listed apart in the source

NC(=O)N1CCC(CC(=O)N2CCC([C@H]3c4ncc(Br)cc4CCc4cc(Cl)cc(Br)c43)CC2)CC1 [LNF, lonafarnib]
selectivity index (SI = CC50/EC50) [1]: greater than 10 | viral inhibition (EC50 curve data) ([1]; μM 0.39794, 24 h): 31.0378 and 31.6733 and 41.1788 and 40.0144 | viral inhibition (EC50 curve data) ([1]; μM 1, 24 h): 85.1292 and 83.5424 and 87.1345 and 86.5675 | Replication ([1]; Log[LNF} mM 0.09691): 60.948 and 56.887 and 64.8083 | Replication ([1]; Log[LNF} mM 0.39794): 44.056 and 34.731 and 47.009 | Replication ([1]; Log[LNF} mM 1): 12.4102 and 12.97 and 12.6676 | Replication ([1]; Log[LNF} mM -0.522879): 64.2793 and 76.4681 and 101.013 | pEC50 ([1]; Severe acute respiratory syndrome coronavirus 2, 24 h, Huh7.5A2T2, 24 h, Fig 1G, read-out: EC50): 5.46 | pEC50 ([1]; Severe acute respiratory syndrome coronavirus 2, 24 h, VeroE6T2, 24 h, Fig 1G, read-out: EC50): 5.65 | pEC50 ([1]; Severe acute respiratory syndrome coronavirus 2, Calu-3, 24 h, Calu3, 24 h, Fig 1G, read-out: EC50): 5.51 | pEC50 ([1]; Severe acute respiratory syndrome coronavirus 2, Vero C1008, 24 h, VeroE6, 24 h, Fig 1G, Fig 5B, read-out: EC50): 5.69 | pEC50 ([1]; Severe acute respiratory syndrome coronavirus 2, VeroE6, Huh7.5A2T2, VeroE6T2, Calu3, read-out: EC50 values, range over cell lines): 5.46 to 5.69 | pEC50 ([1]; VeroE6, 24 h, Fig 1G, Fig 5B, read-out: EC50): 5.70 | percentage of N-positive cells relative to DMSO ([2]; Fig 1B, 5 mM (printed)): 45.291% and 39.2779% and 27.7255% and 32.1523% and 27.1799% and 44.2583% and 28.0879% | percentage of N-positive cells relative to DMSO ([2]; Fig 1B, 10 mM (printed)): 6.293% and 7.566% and 7.349% and 6.272% and 7.2903% and 7.5535% and 6.442% | percentage of N-positive cells relative to DMSO ([2]; Fig 1C, 5 mM (printed)): 10.1344% and 5.318% and 6.858% and 5.707% and 14.6837% and 5.046% and 43.0964% | percentage of N-positive cells relative to DMSO ([2]; Fig 1C, 10 mM (printed)): 4.886% and 4.575% and 6.603% and 7.209% and 6.0224% and 5.548% and 4.54% | % Genome [3]: 8.96% and 1.08% and 1.45% | % Genome [4]: 3.11% and 3.81% and 4.35% | relative luciferase signals ([5]; 0.3 (printed)): 83.8904 and 99.372 and 100.719 and 105.145 | relative luciferase signals ([5]; 1 (printed)): 76.0312 and 74.8493 and 82.9658 and 76.539 | relative luciferase signals ([5]; 3 (printed)): 82.9427 and 55.6651 and 51.5871 and 56.5775 | relative luciferase signals ([5]; 10 (printed)): 30.6993 and 29.5083 and 34.9918 and 28.4711 | relative luciferase signals ([6]; Conc-mM 0.3 (printed)): 87.1833 and 82.9457 and 81.1177 and 86.5186 | relative luciferase signals ([6]; Conc-mM 1 (printed)): 76.2725 and 76.052 and 86.6016 and 79.6419 | relative luciferase signals ([6]; Conc-mM 3 (printed)): 59.768 and 61.4378 and 52.374 and 53.9099 | relative luciferase signals ([6]; Conc-mM 10 (printed)): 35.1915 and 32.9108 and 27.2582 and 33.268 | relative luciferase signals ([7]; Conc-mM 0.3 (printed)): 107.391 and 104.235 and 80.412 and 106.736 | relative luciferase signals ([7]; Conc-mM 1 (printed)): 99.0641 and 83.1761 and 82.6205 and 92.2492 | relative luciferase signals ([7]; Conc-mM 3 (printed)): 65.2189 and 57.2378 and 55.5623 and 61.7046 | relative luciferase signals ([7]; Conc-mM 10 (printed)): 36.5792 and 34.1792 and 24.08 and 33.4344 | relative luciferase signals ([8]; Conc-mM 0.3 (printed)): 89.139 and 98.5081 and 88.3035 and 100.955 | relative luciferase signals ([8]; Conc-mM 1 (printed)): 86.0359 and 78.2183 and 102.626 and 94.5695 | relative luciferase signals ([8]; Conc-mM 3 (printed)): 65.1493 and 69.6847 and 66.5219 and 76.0103 | relative luciferase signals ([8]; Conc-mM 10 (printed)): 35.8018 and 38.2651 and 35.7143 and 29.2527 | time-of-addition result [9]: high efficacy of LNF even if the drug was added 4–24 hours after infection | effect on early events of viral infection ([9]; Calu3, 10 μM): little or no effect on the early events of viral infection | effect when drug present during an initial period of viral infection ([9]; VeroE6, 10 μM): 50% | percentage replication relative to untreated, infected control ([9]; VeroE6, drug present (0,4) h): 51.9274% and 49.1443% and 50.2213% and 50.0245% and 32.7935% and 31.4407% and 36.9633% and 35.1922% | percentage replication relative to untreated, infected control ([9]; VeroE6, drug present (0,24) h): 1.998% and 1.949% and 1.813% and 1.81% and 1.891% and 1.817% and 1.711% and 1.724% | percentage replication relative to untreated, infected control ([9]; VeroE6, drug present (2,4) h): 73.914% and 71.0289% and 54.3207% and 56.213% and 71.519% and 69.7874% and 67.1461% and 65.4707% | percentage replication relative to untreated, infected control ([9]; VeroE6, drug present (2,24) h): 3.962% and 4.023% and 3.69% and 3.889% and 3.6% and 3.5757% and 3.292% and 3.351% | percentage replication relative to untreated, infected control ([9]; VeroE6, drug present (4,24) h): 4.215% and 4.26% and 5.337% and 5.659% and 5.734% and 5.806% and 3.6315% and 3.627% | percentage replication relative to untreated, infected control ([9]; VeroE6, drug present (-2,0) h): 98.397% and 97.5913% and 93.062% and 94.6733% and 95.1896% and 94.1548% and 95.9294% and 95.558% | percentage replication relative to untreated, infected control ([9]; VeroE6, drug present (-2,2) h): 55.8703% and 55.9821% and 50.6506% and 51.7567% and 51.3569% and 50.1515% and 51.6639% and 51.979% | percentage replication relative to untreated, infected control ([9]; VeroE6, drug present (-2,4) h): 43.6671% and 43.2347% and 41.1828% and 42.7136% and 40.9571% and 40.8036% and 42.923% and 42.3078% | percentage replication relative to untreated, infected control ([9]; VeroE6, drug present (-2,24) h): 1.731% and 1.694% and 2.365% and 2.435% and 2.361% and 2.315% and 1.913% and 1.91% | pEC50 [10]: 4.98 | Inhibition ([10]; Log[LNF} mM 1): 53.2589 and 40.1773 and 43.3748 and 43.6359 | pEC50 ([10]; Severe acute respiratory syndrome coronavirus 2, Huh7.5, 24 h): 4.98 | lung viral titer lower than vehicle-treated group ([11]; 40 MPK IP twice daily, […]): ~2 log | Viral titer Log10 ([11]; D2): 7.238 Log10 and 6.041 Log10 and 6.833 Log10 and 6.059 Log10 and 6.826 Log10 and 4.954 Log10 and 7.083 Log10 and 4.756 Log10 | Viral titer Log10 ([11]; D5): 6.491 Log10 and 7.228 Log10 and 6.919 Log10 and 6.362 Log10 (2×) and 6.681 Log10 and 7.255 Log10 and 4 Log10 and 7.033 Log10 | Titer Log10 ([11]; Day 2, individual animals): 1.954 (5×) and 2 and 4.538 and 2.301 and 3.13 (2×) | Titer Log10 ([11]; Day 5, individual animals): 1.954 (3×) and 2.301 and 3.23 and 3.176 and 2.699 and 2.602 and 3.398 and 2.477 | lung viral titer ([11]; LNF 40 MPK IP, RDV 25 MPK SC, twice daily): significantly lowered the viral titer in the lung | lung viral titer [12]: significantly lower viral titers in the lung | CC50 [13]: > 30 µM | CC50 [14]: > 30 µM
